The target in data set [1] is Replicase polyprotein 1ab (Severe acute respiratory syndrome coronavirus 2, UniProt P0DTD1). Kind of data set: Inhibition of 6His-tagged SARS-CoV-2 3CLpro using Dabcyl-KNSTLQSGLRKE-Edans as substrate preincubated for 60 mins followed by substrate addition by FRET assay.
Data set [2] can be described thus: Metabolic stability in mouse liver microsomes assessed as half life at 1 uM preincubated for 5 mins followed by NADPH addition measured upto 45 mins by LC-MS/MS analysis. It is filed as ADME, Microsome. The following applies: time < 50 min.
The nature of data set [3]: Metabolic stability in mouse liver microsomes assessed as hepatic clearance at 1 uM preincubated for 5 mins followed by NADPH addition measured upto 45 mins by LC-MS/MS analysis. It is filed as ADME, Microsome. The following applies: time < 50 min. A general note: Liver microsomes are a subcellular fraction often used to study metabolism.
Data set [4] can be described thus: Metabolic stability in human liver microsomes assessed as half life at 1 uM preincubated for 5 mins followed by NADPH addition measured upto 45 mins by LC-MS/MS analysis. It is filed as ADME, Microsome. The following applies: time < 50 min.
The next data set deals with SARS-CoV-2. Description: Antiviral activity against SARS-CoV-2 infected in human Huh-7 cells transfected with viral replicon incubated for 1 day. The format is functional, organism-based. The following applies: Severe acute respiratory syndrome coronavirus 2, Huh-7, 24 h; for EC90: time 1 day. Background: A replicon is a self-replicating genome or part of one, used to study replication in cells.

Data set [5] in a line: Cytotoxicity against human Huh-7 cells assessed as cell viability by Cell Titer Glo assay. The format is toxicity, cell-based.
The nature of data set [6]: Metabolic stability in human liver microsomes assessed as hepatic clearance at 1 uM preincubated for 5 mins followed by NADPH addition measured upto 45 mins by LC-MS/MS analysis. It is filed as ADME, Microsome. As to conditions: time < 50 min.
For the next data set, the target named is Cathepsin B (Homo sapiens, UniProt P07858). Description: Inhibition of CTSB (unknown origin) incubated for 2 hrs.
A further data set concerns the target Procathepsin L (Homo sapiens, UniProt P07711). Description: Inhibition of CTSL (unknown origin) incubated for 2 hrs.
Data set [7] in a line: AUC (0 to infinity) in ICR mouse at 20 mg/kg, po measured for 24 hrs by LC-MS/MS analysis. It is filed as ADME, organism-based. As to conditions: in vivo.
Data set [8] is described as follows: AUC (0 to t) in ICR mouse at 10 mg/kg, iv measured for 24 hrs by LC-MS/MS analysis. The following applies: in vivo. It is filed as ADME, organism-based.
Data set [9] is described as follows: AUC (0 to infinity) in ICR mouse at 10 mg/kg, iv measured for 24 hrs by LC-MS/MS analysis. The format is ADME, organism-based. The following applies: in vivo.
A short description of data set [10]: Half life in ICR mouse at 10 mg/kg, iv measured for 24 hrs by LC-MS/MS analysis. The format is ADME, organism-based. The following applies: in vivo.
Data set [11] in a line: Oral bioavailability in ICR mouse at 20 mg/kg measured for 24 hrs by LC-MS/MS analysis. The format is ADME, organism-based. The following applies: in vivo.
Data set [12] can be described thus: AUC (0 to t) in ICR mouse at 20 mg/kg, po measured for 24 hrs by LC-MS/MS analysis. As to conditions: in vivo. It is filed as ADME, organism-based.
The nature of data set [13]: Cmax in ICR mouse at 20 mg/kg, po measured for 24 hrs by LC-MS/MS analysis. The format is ADME, organism-based. The following applies: in vivo.
Data set [14] in a line: Half life in ICR mouse at 20 mg/kg, po measured for 24 hrs by LC-MS/MS analysis. As to conditions: in vivo. The format is ADME, organism-based.

Where only a bound is given, the exact number is not on record here.

Chain of Procathepsin L (P07711 whole entry): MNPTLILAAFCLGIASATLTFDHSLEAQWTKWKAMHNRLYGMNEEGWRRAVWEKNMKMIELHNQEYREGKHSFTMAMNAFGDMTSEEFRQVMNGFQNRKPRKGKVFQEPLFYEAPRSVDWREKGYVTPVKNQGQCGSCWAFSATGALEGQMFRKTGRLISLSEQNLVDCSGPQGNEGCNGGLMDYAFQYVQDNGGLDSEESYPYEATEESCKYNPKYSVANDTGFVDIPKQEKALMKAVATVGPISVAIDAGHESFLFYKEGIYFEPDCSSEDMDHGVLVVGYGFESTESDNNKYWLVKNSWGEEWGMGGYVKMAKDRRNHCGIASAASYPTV

Take `N#C[C@@H]1C[C@@]2(CN1C(=O)[C@H](CSCc1ccccc1)NC(=O)[C@@H](NC(=O)C(F)(F)F)C1CC1)C(=O)Nc1ccccc12`: the half-maximal inhibitory concentration (IC50) – broadly, the concentration that gives 50% inhibition – in [1] was found to be 298 nM.

For `CC(C)(F)C(=O)N[C@H](C(=O)N[C@@H](COCc1ccccc1)C(=O)N1C[C@]2(C[C@H]1C#N)C(=O)Nc1ccccc12)C1CC1`, the half-maximal inhibitory concentration (IC50) in data set [1] was determined as 80 nM.

As for `CN(C(=O)[C@@H](NC(=O)C(F)(F)F)C1CC1)[C@@H](CSCc1ccccc1)C(=O)N1C[C@]2(C[C@H]1C#N)C(=O)Nc1ccccc12`, the half-life (commonly the time needed for the level to fall by half in the phase considered) at 1 µM in data set [2] was determined as 0.0617 h. The CLhep predicted at 1 µM in data set [3] was 84.9 mL/min/kg. Further, the IC50 in data set [1] was determined as 40 nM.

On to `CN(C(=O)[C@@H](NC(=O)C(C)(C)F)C1CC1)[C@@H](CSCc1ccccc1)C(=O)N1C[C@]2(C[C@H]1C#N)C(=O)Nc1ccccc12`, for which the half-life at 1 µM in [2] is 0.06 h. In data set [3], the CLhep predicted at 1 µM is 85.1 mL/min/kg. The half-maximal inhibitory concentration (IC50) in [1] came to 43 nM.

In data set [1], `CC(C)(F)C(=O)N[C@H](C(=O)N[C@@H](CSCc1ccccc1)C(=O)N1C[C@]2(C[C@H]1C#N)C(=O)Nc1ccccc12)C1CC1` yielded an IC50 of 97 nM.

For the molecule `CC(C)(C)[C@H](NC(=O)C(F)(F)F)C(=O)N1C[C@H]2[C@@H]([C@H]1C(=O)N[C@H](C#N)C[C@@H]1CCNC1=O)C2(C)C`, the results for the half-life at 1 µM in data set [4] and in data set [2] were 0.91 h and 1.17 h, respectively. Further, the EC90 (in general, the concentration at which the effect reaches the 90% level) with SARS-CoV-2 came to 186 nM. Moreover, the CC50 (usually the concentration at which the toxic effect on the cells reaches its halfway point) in data set [5] was > 5000 nM. Besides, the CLhep predicted at 1 µM in [6] was 12.7 mL/min/kg.

Turning to `CN(C(=O)[C@@H](NC(=O)OC(C)(C)C)C1CC1)[C@@H](CSCc1ccccc1)C(=O)N1C[C@]2(C[C@H]1C#N)C(=O)Nc1ccccc12`, in data set [1], the IC50 worked out at 38 nM.

Regarding `CN(C(=O)[C@@H](NC(=O)C(C)(C)F)C1CC1)[C@@H](COCc1ccccc1)C(=O)N1C[C@]2(C[C@H]1C#N)C(=O)Nc1ccccc12`, the half-life at 1 µM in data set [2] came to 0.0783 h. For the same molecule, the CLhep predicted at 1 µM in data set [3] was 83.6 mL/min/kg. For the same molecule, in [1], the half-maximal inhibitory concentration (IC50) came out at 53 nM.

`CC(C)C[C@H](NC(=O)[C@H]1C[C@@H]1C(=O)O)C(=O)NCCCCNC(=N)N`: the IC50 on Cathepsin B came to 41.4 nM; against Procathepsin L, 56.2 nM.

In the case of `CN(C(=O)[C@@H](NC(=O)C(F)(F)F)C1CC1)[C@@H](Cc1ccc(F)cc1)C(=O)N1C[C@]2(C[C@H]1C#N)C(=O)Nc1ccccc12`, the AUC(0-inf) (usually total exposure, with the tail of the curve extrapolated) in [7] was determined as 1110 ng·h/mL; in data set [9], 3420 ng·h/mL. Further, the values for the AUC(0-t) at 24 h in [8] and in [12] were 3420 ng·h/mL and 1110 ng·h/mL, respectively. Also, the half-life at 1 µM in [4] worked out at 0.207 h; in data set [2], 1.25 h. A half-maximal effect in the data set with SARS-CoV-2 (EC50) was put at 5 nM. The molecule further displayed an EC90 in the data set on SARS-CoV-2 of 39 nM. Moreover, the figures for the half-life in data set [10] and in data set [14] were 1.99 h and 2.58 h, respectively. Also, in data set [11], the bioavailability (in general, the share of a dose that reaches the circulation, judged against a reference dose that is usually intravenous) amounted to 16.2%. Besides, in data set [5], the CC50 was > 5000 nM. The CLhep predicted at 1 µM in data set [3] was 40.8 mL/min/kg; in [6], 18.3 mL/min/kg. Further, the Cmax (as a rule, the maximum level reached in the sampled fluid or tissue) in data set [13] was found to be 1360 ng/mL. Further, the IC50 in data set [1] is 21 nM; at Cathepsin B, 20700 nM; against Procathepsin L it was 20200 nM.

In turn, `CC1(C)[C@@H]2[C@@H](C(=O)N3C[C@]4(C[C@H]3C#N)C(=O)Nc3ccccc34)N(C(=O)[C@@H](NC(=O)C(F)(F)F)C3CC3)C[C@@H]21` returned an IC50 in data set [1] of 886 nM. This counts as sub-micromolar.

As to `N#C[C@@H]1C[C@@]2(CN1C(=O)[C@@H](CSCc1ccc(F)cc1)NC(=O)[C@@H](NC(=O)C(F)(F)F)C1CC1)C(=O)Nc1ccccc12`, the AUC(0-inf) in data set [7] turned out to be 972 ng·h/mL; in data set [9] it was 2130 ng·h/mL. In addition, the AUC(0-t) (as a rule, exposure summed from dosing to a finite time, without extrapolation to infinity) at 24 h in [8] was 2120 ng·h/mL; in data set [12], 970 ng·h/mL. Further, the half-life at 1 µM in data set [4] was 1.93 h; in [2], 1.5 h. In addition, in the data set on SARS-CoV-2, the EC50 (in general, the concentration at which the effect is half-maximal) turned out to be 31 nM. It took 286 nM to reach the 90% level in the data set on SARS-CoV-2 (EC90). In addition, the half-life in data set [10] was 0.47 h; in [14], 1.05 h. The molecule further showed a bioavailability in data set [11] of 22.9%. The CC50 in data set [5] is > 5000 nM. The CLhep predicted at 1 µM in data set [3] is 36.8 mL/min/kg; in data set [6], 8.8 mL/min/kg. Also, the Cmax in data set [13] was determined as 1530 ng/mL. For the same molecule, the concentration for half-maximal inhibition (IC50) in data set [1] amounted to 25 nM.

`CN(C(=O)[C@@H](NC(=O)OC(C)(C)C)C1CC1)[C@H](CSCc1ccccc1)C(=O)N1C[C@]2(C[C@H]1C#N)C(=O)Nc1ccccc12`: in data set [1], the IC50 stood at 674 nM.

As to `CC(C)(C)OC(=O)N[C@H](C(=O)N[C@@H](CSCc1ccccc1)C(=O)N1C[C@]2(C[C@H]1C#N)C(=O)Nc1ccccc12)C1CC1`, in data set [1], half-maximal inhibition (IC50) required 47 nM. Against the preceding molecule, the IC50 is about 14-fold lower.

In turn, `N#C[C@@H]1C[C@@]2(CN1C(=O)[C@H](CS(=O)(=O)Cc1ccccc1)NC(=O)[C@@H](NC(=O)C(F)(F)F)C1CC1)C(=O)Nc1ccccc12` came in with a concentration for half-maximal inhibition (IC50) in data set [1] of 1300 nM.

In turn, `CC(C)(C)[C@H](NC(=O)C(F)(F)F)C(=O)N1C[C@H]2[C@@H]([C@H]1C(=O)N1C[C@]3(CC1C#N)C(=O)Nc1ccccc13)C2(C)C` (stereo not given in full) gave an IC50 in data set [1] of 248 nM.

The molecule `CN(C(=O)[C@@H](NC(=O)C(F)(F)F)C1CC1)[C@@H](CS(=O)(=O)Cc1ccccc1)C(=O)N1C[C@]2(C[C@H]1C#N)C(=O)Nc1ccccc12` returned an IC50 in data set [1] of 94 nM.

These data come from ChEMBL document CHEMBL6087408, “Discovery of peptidomimetic spiropyrrolidine derivatives as novel 3CLpro inhibitors against SARS-CoV -2” (Eur J Med Chem, 2025).
